Laboratory results from PMC3626250, “Effects of Borneol on Pharmacokinetics and Tissue Distribution of Notoginsenoside R1 and Ginsenosides Rg1 and Re in Panax notoginseng in Rabbits” (Journal of Analytical Methods in Chemistry, 2013).

Key:
[1] = Tissue distribution study in rabbits after oral Panax notoginseng extract with or without Borneol; format: in vivo, New Zealand rabbits
Description: Frozen plasma and tissue samples were thawed in a water bath at 37°C and were then vortexed followed by centrifuging at 5000 r·min^−1 for 5 min. An aliquot of 1.0 mL of the supernatant from each sample was loaded onto C18 Bond Elute Solid phase extraction (SPE) cartridges (1000 mg, 1 cc reservoir, Varian, Harbor City, CA, USA) pretreated with 2.0 mL hexane, isopropanol, methanol, and water, sequentially. The SPE cartridges were then washed with 1.0 mL water, 20% methanol/water solution, 40% methanol/water solution, and 60% methanol/water solution, sequentially. Finally, analytes were eluted twice with 1.0 mL of 70% methanol/water solution. The eluant was evaporated to dryness under nitrogen. The residues were then reconstituted in 1.0 mL mobile phase. An aliquot of 10 μL was injected into the LC-MS system.
One group of rabbits (n = 18) was orally administered a dose of 3.0 mL·kg^−1 Panax notoginseng extract, while another group of rabbits (n = 18) was orally given 3.0 mL·kg^−1 Panax notoginseng extract combined with Borneol. At 0.5, 1, and 3 h after administration, blood samples were collected from the central ear artery of six rabbits from each group, and the heart, liver, lung, kidney, and brain were immediately removed after animals were sacrificed by decapitation. An accurately weighed amount of tissue (1 g) was collected to be rinsed, dried, minced, and homogenized (400 r·min^−1) in normal saline (1.5 mL). All of the samples were stored at −70°C and were processed prior to analysis with the proposed method as described in Section 2.6.

[2] = test system: vinblastine-selected Caco-2 cells; assay: Transport studies across Caco-2 monolayers (P app, efflux ratio); format: in vitro ADME
Description: Medium was replaced every 2-3 days. […] The vinblastine-selected Caco-2 cells were cultivated in the presence of 10 nM vinblastine to induce P-glycoprotein (P-gp) expression. […] Prior to the transport study, cytotoxicity of NGR1, GRg1, GRe, and Borneol toward Caco-2 cells was determined using MTT assays.
In transport studies, vinblastine-selected Caco-2 cells were seeded on polycarbonate filter of transwells for 18–21 days before starting transport study, and the monolayers with the transepithelial electrical resistance (TEER) values greater than 300 Ωcm^2 were used. Caco-2 monolayers were rinsed twice with Hanks' balanced salt solution (HBSS) and preincubated in HBSS at 37°C for 30 min before starting experiments. To start the experiments, 500 μM of NGR1, GRg1, and GRe in final concentrations were added to the donor side with or without 200 μM Borneol and then incubated at 37°C. […] After each sampling, 0.1 mL of HBSS was added to the receiver chamber to maintain a constant volume. All the experiments were performed five times in duplicate. The collected samples were stored at −20°C until HPLC analysis. During the above transport studies, the TEER values were also monitored before and at the end of each experiment. Apparent permeability coefficients (P app) were then calculated according to the following equation: (1) Papp=(dC/dt×V)/(A×C0), where dC/dt is the rate of the test compound appearing in the receiver chamber, V is the volume of the solution in the receiver chamber, A is the cell monolayer surface area, and C 0 is the initial concentration of the test compound added in the donor chamber.
The efflux ratio (Er) was calculated using the following equation: (2) Er=Papp(basolateral-apical)/Papp(apical-basolateral).

[3] = Stability in plasma samples and tissue homogenates of rabbits; format: physicochemical; conditions: brain homogenate
Description: The precision of the assay was determined for the quality control (QC) plasma and tissue […] Intraday precision and accuracy were determined via repeated analysis of the QC plasma and tissue samples within one day (n = 5). Interday precision and accuracy were determined via repeated analysis on five consecutive days. The concentration of each sample was determined using the prepared calibration curve and analyzed on the same day. All stabilities were evaluated at different concentration levels. Short-term stability of NGR1, GRg1, and GRe were assessed by analyzing QC samples kept at 4°C for 4–24 h. Freeze-thaw stability was evaluated at three consecutive freeze-thaw cycles. Long-term stability was studied by analyzing samples during a period of 8 weeks of storage at −70°C.
The stability studies were performed by evaluating small variations in three different conditions.

[4] = 0.5 h, oral Panax notoginseng with Borneol
[5] = 1.0 h, oral Panax notoginseng with Borneol
[6] = 3.0 h, oral Panax notoginseng with Borneol
[7] = Borneol combined with Panax notoginseng, peak levels at 1.0 h
[8] = Caco-2 Model, 500 μM compound, with or without 200 μM Borneol (see label)

`CC(C)=CCC[C@](C)(O[C@@H]1O[C@H](CO)[C@@H](O)[C@H](O)[C@H]1O)[C@H]1CC[C@]2(C)[C@@H]1[C@H](O)C[C@@H]1[C@@]3(C)CC[C@H](O)C(C)(C)[C@@H]3[C@@H](O[C@@H]3O[C@H](CO)[C@@H](O)[C@H](O)[C@H]3O[C@@H]3OC[C@@H](O)[C@H](O)[C@H]3O)C[C@]12C` [NGR1, notoginsenoside R1] showed a Concentration in brain ([1]; 0.5 h, oral Panax notoginseng) of 0.65 ± 0.24 µg/g, a Concentration in heart ([1]; 0.5 h, oral Panax notoginseng) of 3.90 ± 0.53 µg/g and a Concentration in kidney ([1]; 0.5 h, oral Panax notoginseng) of 2.85 ± 0.45 µg/g. For the same compound, the Concentration in liver ([1]; 0.5 h, oral Panax notoginseng) was 1.38 ± 0.54 µg/g, the Concentration in lung ([1]; 0.5 h, oral Panax notoginseng) was 1.77 ± 0.46 µg/g and the Concentration in plasma ([1]; 0.5 h, oral Panax notoginseng) was 1670 ± 50 ng/mL. For the same compound, the Concentration in brain [1, 4] was 4.02 ± 0.46 µg/g, the Concentration in heart [1, 4] was 4.68 ± 0.21 µg/g and the Concentration in kidney [1, 4] was 3.98 ± 0.12 µg/g. The Concentration in liver [1, 4] was 8.24 ± 0.42 µg/g, the Concentration in lung [1, 4] was 5.79 ± 0.29 µg/g and the Concentration in plasma [1, 4] was 1620 ± 70 ng/mL. It also gave a Concentration in brain ([1]; 1.0 h, oral Panax notoginseng) of 0.81 ± 0.26 µg/g, a Concentration in heart ([1]; 1.0 h, oral Panax notoginseng) of 4.26 ± 0.27 µg/g and a Concentration in kidney ([1]; 1.0 h, oral Panax notoginseng) of 2.74 ± 0.33 µg/g. The Concentration in liver ([1]; 1.0 h, oral Panax notoginseng) was 1.66 ± 0.28 µg/g, the Concentration in lung ([1]; 1.0 h, oral Panax notoginseng) was 1.82 ± 0.20 µg/g and the Concentration in plasma ([1]; 1.0 h, oral Panax notoginseng) was 1290 ± 200 ng/mL. It also gave a Concentration in brain [1, 5] of 5.58 ± 0.68 µg/g, a Concentration in heart [1, 5] of 5.55 ± 0.31 µg/g and a Concentration in kidney [1, 5] of 3.38 ± 0.34 µg/g. It also gave a Concentration in liver [1, 5] of 9.29 ± 0.72 µg/g, a Concentration in lung [1, 5] of 9.96 ± 0.66 µg/g and a Concentration in plasma [1, 5] of 1460 ± 50 ng/mL. It also gave a Concentration in brain ([1]; 3.0 h, oral Panax notoginseng) of 0.48 ± 0.14 µg/g, a Concentration in heart ([1]; 3.0 h, oral Panax notoginseng) of 3.31 ± 0.32 µg/g and a Concentration in kidney ([1]; 3.0 h, oral Panax notoginseng) of 1.94 ± 0.24 µg/g. For the same compound, the Concentration in liver ([1]; 3.0 h, oral Panax notoginseng) was 0.89 ± 0.12 µg/g, the Concentration in lung ([1]; 3.0 h, oral Panax notoginseng) was 1.51 ± 0.16 µg/g and the Concentration in plasma ([1]; 3.0 h, oral Panax notoginseng) was 160 ± 60 ng/mL. The Concentration in brain [1, 6] was 3.69 ± 0.84 µg/g, the Concentration in heart [1, 6] was 4.59 ± 0.52 µg/g and the Concentration in kidney [1, 6] was 2.27 ± 0.28 µg/g. It also gave a Concentration in liver [1, 6] of 6.87 ± 0.61 µg/g, a Concentration in lung [1, 6] of 4.56 ± 0.75 µg/g and a Concentration in plasma [1, 6] of 490 ± 20 ng/mL. For the same compound, the “level in kidney, fold higher than the plasma concentrations” value ([1]; Borneol combined with Panax notoginseng, at 1.0 h) was 2.3 fold, the “level in brain, fold higher than the plasma concentrations” value [1, 7] was 3.82 fold and the “level in liver, fold higher than the plasma concentrations” value [1, 7] was 6.36 fold. The “level in lung, fold higher than the plasma concentrations” value [1, 7] was 6.82 fold, the “increase of P app (apical-to-basolateral) by Borneol” value ([2]; 200 μM Borneol, Caco-2) was 2.9 fold and the “increase of P app (basolateral-to-apical) by Borneol” value ([2]; 200 μM Borneol, Caco-2) was 2.9 fold. The “P app (apical to basolateral)” value [2, 8] was 0.64 ± 0.08 × 10^−7 cm/s, the “P app (basolateral to apical)” value [2, 8] was 0.68 ± 0.12 × 10^−7 cm/s and the P app values ([2]; Caco-2 monolayers, without Borneol) was “less than 10^−6 cm/s”. For the same compound, the “substrate of P-gp” value ([2]; concluded from efflux ratio in vinblastine-selected Caco-2 cells) was “seemed not to be substrates of P-gp”, the E r ([2]; efflux ratio P app(basolateral-apical)/P app(apical-basolateral), with or without 200 μM Borneol (see label)) was 1.06 and the “Remaining, Short-term stability” value ([3]; QC 0.5 μg·mL^−1, 4°C for 4–24 h) was 92.3 ± 9.4%. The “Remaining, Long-term stability” value ([3]; QC 0.5 μg·mL^−1, 8 weeks at −70°C) was 101.8 ± 6.8% and the “Remaining, Freeze-thaw stability” value ([3]; QC 0.5 μg·mL^−1, three freeze-thaw cycles) was 92.8 ± 6.9%.
